Reference: patent US20120245078A1, “MEANS AND METHODS FOR TREATING ISCHEMIC CONDITIONS” (priority 2009, published 2012)

Legend:
[1] = tested on: focal cerebral ischemia (tMCAO); conditions: mice, 24 h after 60 min tMCAO; same doses; untreated control 48.3±16.7 or 56.6±10.0
Experimental: The intraluminal suture was left in situ for 60 minutes. Then animals were re-anesthetized and the occluding monofilament was withdrawn to allow reperfusion. […] Control mice (n=10) received 0.9% NaCl solution.
Control mice (n=10) received 0.9% NaCl solution.

[2] = tested on: traumatic brain injury (CCI); assay: Controlled cortical impact (CCI) traumatic brain injury model; type: in vivo, mouse; conditions: mice, 24 h after CCI; given 30 min after CCI; bortezomib 0.2 mg/kg, dexamethasone 10 mg/kg; scale 0 to 10
Experimental: As is known in the art, the neurological severity score is a measure of neurological impairment and is quantified on a scale from 0 (no impairment) to 10 (maximum impairment). When determining the neurological severity score, primarily the motoric activity is assessed (walking on a bar, false steps, search or foraging, respectively, behaviour and the like).

occludin protein = assay: Western blot and densitometry, occludin protein in cEND cells; type: cell-based, mouse; conditions: for occludin protein, of control: GR-K426A-transfected cEND cells, after O2/glucose deprivation
Experimental: (C)-(D) The influence of O2/glucose-deprivation on the tight junction proteins occludin and claudin-5 could be shown by Western Blot: for this, cells were seeded on plastic cell culture flasks coated with collagen IV, treated as indicated and subjected to SDS-gel electrophoresis and Western blotting. A four-hour exposure to O2/glucose-deprivation caused a significant (P<0.05) decrease in occludin protein to 82±3% as compared to the untreated control. […]. Comparably, O2/glucose-deprivation caused a significant (P<0.001) decrease in claudin-5 protein to 61±4% as compared to the untreated control. […]. (C) Effects of proteasomal inhibition on occludin protein levels were examined by western blot analysis and densitometric analysis.

claudin-5 protein = assay: Western blot and densitometry, claudin-5 protein in cEND cells; type: cell-based, mouse; conditions: GR-K426A-transfected cEND cells, O2/glucose deprivation, presence of dexamethasone (K426A O2/glu depr+dex)
Experimental: (C)-(D) The influence of O2/glucose-deprivation on the tight junction proteins occludin and claudin-5 could be shown by Western Blot: for this, cells were seeded on plastic cell culture flasks coated with collagen IV, treated as indicated and subjected to SDS-gel electrophoresis and Western blotting. A four-hour exposure to O2/glucose-deprivation caused a significant (P<0.05) decrease in occludin protein to 82±3% as compared to the untreated control. […]. Comparably, O2/glucose-deprivation caused a significant (P<0.001) decrease in claudin-5 protein to 61±4% as compared to the untreated control. […].

GR protein = assay: Western blot and densitometry, GR protein levels in cEND cells; type: cell-based, mouse; conditions: normoxia, 100 nM dexamethasone 24 h (normox+dex)
Experimental: (A) GR protein levels after O2/glucose-deprivation.
(§1) Electrophoresis and immunoblotting, quantitative real-time RT-PCR, transendothelial electrical resistance measurements, transfection and luciferase assay were performed following standard procedures.

cEND monolayers = assay: Transendothelial electrical resistance (TER) of cEND monolayers, normoxia or O2/glucose deprivation; type: cell-based, mouse; conditions: GR-K426A-transfected cEND cells, after O2/glucose deprivation, without dexamethasone (K426A O2/glu depr)
Experimental: Growth medium (10% FCS) was changed after 5 days in culture to differentiation medium ([…], ±additions) and analysis of the TER was performed after O2/glucose-deprivation as indicated. […] Hek293 cells were maintained in DMEM, 10% FCS. […] We performed cell viability assays following standard procedures.
as §1

claudin-5 = assay: Real time RT-PCR, claudin-5 gene expression in cEND cells; type: cell-based, mouse; conditions: introduction of GR-K426A
Experimental: (§2) Normox control (black bars), normox+dex (white bars), O2/glu depr (light grey bars), O2/glu depr+dex (dark grey bars).
as §1
(§3) At first, expression levels of genes encoding the tight junction proteins occludin, claudins-3, -5, -12 and the adherens junction protein, VE-cadherin, were assessed by real time RT-PCR (FIG. 2B).

VE-cadherin = assay: Real time RT-PCR, VE-cadherin gene expression in cEND cells; type: cell-based, mouse; conditions: introduction of GR-K426A
Experimental: as §2, §1, §3

## CC(C)C[C@@H](NC(=O)[C@@H](Cc1ccccc1)NC(=O)c1cnccn1)B(O)O [bortezomib, [(1S)-3-methyl-1-[[(2R)-3-phenyl-2-(pyrazine-2-carbonylamino)propanoyl]amino]butyl]boronic acid]
[1]
  volume of Evan's blue extravasation (edema volume): no influence
[2]
  neurological severity score: does not lead to any statistically significant improvement

## C[C@@H]1C[C@H]2[C@@H]3CCC4=CC(=O)C=C[C@]4(C)[C@@]3(F)[C@@H](O)C[C@]2(C)[C@@]1(O)C(=O)CO [dexamethasone]
Occludin protein; dexamethasone (K426A O2/glu depr+dex)
  occludin protein, of control: 122±5%
Occludin protein; normoxia, dexamethasone
  occludin protein content, of control: 120±7%
claudin-5 protein
  claudin-5 protein level: 44±11%
GR protein
  GR protein, of untreated cells: 66±2%

B1: GR-K426A: mutant murine glucocorticoid receptor, point mutation at lysine-426, resistant to proteasomal degradation, transfected into cEND cells (SEQ ID NOs: 3 and 4) (protein)
chain: MDSKESLAPPGRDEVPSSLLGRGRGSVMDLYKTLRGGATVKVSASSPSVAAASQADSKQQRILLDFSKGSASNAQQQQQQQQPQPDLSKAVSLSMGLYMGETETKVMGNDLGYPQQGQLGLSSGETDFRLLEESIANLNRSTSRPENPKSSTPAAGCATPTEKEFPQTHSDPSSEQQNRKSQPGTNGGSVKLYTTDQSTFDILQDLEFSAGSPGKETNESPWRSDLLIDENLLSPLAGEDDPFLLEGDVNEDCKPLILPDTKPKIQDTGDTILSSPSSVALPQVKTEKDDFIELCTPGVIKQEKLGPVYCQASFSGTNIIGNKMSAISVHGVSTSGGQMYHYDMNTASLSQQQDQKPVFNVIPPIPVGSENWNRCQGSGEDNLTSLGAMNFAGRSVFSNGYSSPGMRPDVSSPPSSSSTATGPPPALCLVCSDEASVCHYGVLTCGSCKVFFKRAVEGQHNYLCAGRNDCIIDKIRRKNCPACRYRKCLQAGMNLEARKTKKKIKGIQQATAGVSQDTSENANKTIVPAALPQLTPTLVSLLEVIEPEVLYAGYDSSVPDSAWRIMTTLNMLGGRQVIAAVKWAKAIPGFRNLHLDDQMTLLQYSWMFLMAFALGWRSYRQASGNLLCFAPDLIINEQRMTLPCMYDQCKHMLFISTELQRLQVSYEEYLCMKTLLLLSSVPKEGLKSQELFDEIRMTYIKELGKAIVKREGNSSQNWQRFYQLTKLLDSMHDVVENLLSYCFQTFLDKSMSIEFPEMLAEIITNQIPKYSNGNIKKLLFHQK
modifications: expressed in transfected cEND cells; mus musculus
cEND monolayers
  TER: 239+58 Ωcm^2
claudin-5
  claudin-5 gene expression level: not influenced
VE-cadherin
  VE-cadherin gene expression level: not influenced
Occludin protein; without dexamethasone (K426A O2/glu depr)
  occludin protein, of control: 58±7%
